Experimental data published in ChEMBL document CHEMBL5550173, “Design, synthesis and biological evaluation of indoline-maleimide conjugates as potential antitumor agents for the treatment of colorectal cancer” (Bioorg Med Chem, 2024).
Activity calls are given as the source filed them. No cut-off for these calls is given here.

Experiments:
HT-29 = test: Cytotoxicity against human HT-29 cells incubated for 72 hrs by MTS assay; format: functional, cell-based; conditions: HT-29, 72 h
RKO [1] = test: Induction of apoptosis in human RKO cells assessed as necrotic cells at 5 uM incubated for 48 hrs by Annexin V-PE and propidium iodide staining based flow cytometry analysis (reference value: 0.3%); format: functional
[2] = Acute toxicity in BALB/c mouse assessed as liver lesion at 50 to 100 mg/kg, ip measured every 2 days by H and E staining based assay; format: organism-based; conditions: in vivo, 48 h, dose 50-100 mg/kg
HCT-116 [3] = test: Antitumor activity against human HCT-116 cells xenografted in BALB/c mouse assessed as reduction in tumor weight at 5 to 10 mg/kg, ip administered every 2 days; format: functional, organism-based; conditions: dose 5-10 mg/kg
[4] = biological target: Serine/threonine-protein kinase AKT (Homo sapiens) (UniProt P31751+Q9Y243+P31749); test: Inhibition of AKT phosphorylation in human HCT-116 cells by incubated for 48 hrs Western blotting analysis; format: cell-based; conditions: dose 2.5-10 µM
HCT-116 [5] = test: Induction of apoptosis in human HCT-116 cells assessed as necrotic cells at 10 uM incubated for 48 hrs by Annexin V-PE and propidium iodide staining based flow cytometry analysis (reference value: 1.3%); format: functional
HCT-116 [6] = test: Induction of apoptosis in human HCT-116 cells assessed as necrotic cells at 5 uM incubated for 48 hrs by Annexin V-PE and propidium iodide staining based flow cytometry analysis (reference value: 1.3%); format: functional
HCT-116 [7] = test: Effect on cyclin D1 expression in human HCT-116 cells at 2.5 to 10 uM incubated for 48 hrs by Western blotting analysis; format: functional, cell-based; conditions: dose 2.5-10 µM
HCT-116 [8] = test: Inhibition of cell migration in human HCT-116 cells at 2.5 to 10 uM measured upto 48 hrs by scratch wound healing assay; format: functional, cell-based; conditions: dose 2.5-10 µM
HCT-116 [9] = test: Inhibition of colony formation in human HCT-116 cells incubated for 10 days with every 3 days of media replacement by crystal violet staining based assay; format: functional, cell-based; conditions: dose 1-4 µM, time 10.0 day
HCT-116 [10] = test: Effect on GSK-3beta level in human HCT-116 cells at 2.5 to 10 uM incubated for 48 hrs by Western blotting analysis; format: functional, cell-based; conditions: dose 2.5-10 µM
HCT-116 [11] = test: Induction of cell cycle arrest in human HCT-116 cells assessed as decrease in S phase cells incubated for 48 hrs by propidium iodide staining based flow cytometry analysis; format: functional; conditions: dose 2.5-10 µM
[12] = Acute toxicity in BALB/c mouse assessed as lung lesion at 50 to 100 mg/kg, ip measured every 2 days by H and E staining based assay; format: organism-based; conditions: in vivo, 48 h, dose 50-100 mg/kg
RKO [13] = test: Effect on RB1 expression in human RKO cells at 2.5 to 10 uM incubated for 48 hrs by Western blotting analysis; format: functional, cell-based; conditions: dose 2.5-10 µM
HCT-116 [14] = test: Induction of apoptosis in human HCT-116 cells assessed as necrotic cells at 2.5 uM incubated for 48 hrs by Annexin V-PE and propidium iodide staining based flow cytometry analysis (reference value: 1.3%); format: functional
RKO [15] = test: Induction of cell cycle arrest in human RKO cells assessed as downregulation of p-Rb expression at 2.5 to 10 uM incubated for 48 hrs by Western blotting analysis; format: functional, cell-based; conditions: dose 2.5-10 µM
RKO [16] = test: Induction of apoptosis in human RKO cells assessed as viable cells at 5 uM incubated for 48 hrs by Annexin V-PE and propidium iodide staining based flow cytometry analysis (reference value: 99.2%); format: functional; conditions: read-out: Activity
HCT-116 [17] = test: Induction of apoptosis in human HCT-116 cells assessed as early apoptotic cells at 2.5 uM incubated for 48 hrs by Annexin V-PE and propidium iodide staining based flow cytometry analysis (reference value: 0.4%); format: functional
RKO [18] = test: Inhibition of cell migration in human RKO cells at 2.5 to 10 uM measured upto 48 hrs by scratch wound healing assay; format: functional, cell-based; conditions: dose 2.5-10 µM
RKO [19] = test: Induction of apoptosis in human RKO cells assessed as late apoptotic cells at 5 uM incubated for 48 hrs by Annexin V-PE and propidium iodide staining based flow cytometry analysis (reference value: 0.3%); format: functional
HCT-116 [20] = test: Induction of cell cycle arrest in human HCT-116 cells assessed as upregulation of p53 expression at 2.5 to 10 uM incubated for 48 hrs by Western blotting analysis; format: functional, cell-based; conditions: dose 2.5-10 µM
[21] = Acute toxicity in BALB/c mouse assessed as kidney lesion at 50 to 100 mg/kg, ip measured every 2 days by H and E staining based assay; format: organism-based; conditions: in vivo, 48 h, dose 50-100 mg/kg
HCT-116 [22] = test: Induction of cell cycle arrest in human HCT-116 cells assessed as downregulation of p-Rb expression at 2.5 to 10 uM incubated for 48 hrs by Western blotting analysis; format: functional, cell-based; conditions: dose 2.5-10 µM
RKO [23] = test: Induction of cell cycle arrest in human RKO cells assessed as upregulation of p21 expression at 2.5 to 10 uM incubated for 48 hrs by Western blotting analysis; format: functional, cell-based; conditions: dose 2.5-10 µM
HCT-116 [24] = test: Induction of apoptosis in human HCT-116 cells assessed as viable cells at 2.5 uM incubated for 48 hrs by Annexin V-PE and propidium iodide staining based flow cytometry analysis (reference value: 97.8%); format: functional; conditions: read-out: Activity
HCT-116 [25] = test: Effect on AKT level in human HCT-116 cells at 2.5 to 10 uM incubated for 48 hrs by Western blotting analysis; format: functional, cell-based; conditions: dose 2.5-10 µM
HCT-116 [26] = test: Induction of apoptosis in human HCT-116 cells assessed as late apoptotic cells at 10 uM incubated for 48 hrs by Annexin V-PE and propidium iodide staining based flow cytometry analysis (reference value: 0.5%); format: functional
HCT-116 [27] = test: Induction of cell cycle arrest in human HCT-116 cells assessed as accumulation of cells at G0/G1 phase incubated for 48 hrs by propidium iodide staining based flow cytometry analysis; format: functional; conditions: dose 2.5-10 µM
HCT-116 [28] = test: Antitumor activity against human HCT-116 cells xenografted in BALB/c mouse assessed as tumor growth suppression at 5 to 10 mg/kg, ip measured every 2 days; format: functional, organism-based; conditions: dose 5-10 mg/kg
HCT-116 [29] = test: Induction of apoptosis in human HCT-116 cells assessed as viable cells at 5 uM incubated for 48 hrs by Annexin V-PE and propidium iodide staining based flow cytometry analysis (reference value: 97.8%); format: functional; conditions: read-out: Activity
HCT-116 [30] = test: Induction of cell cycle arrest in human HCT-116 cells assessed as downregulation of CDK4 expression at 2.5 to 10 uM incubated for 48 hrs by Western blotting analysis; format: functional, cell-based; conditions: dose 2.5-10 µM
RKO [31] = test: Cytotoxicity against human RKO cells at 5 uM incubated for 72 hrs by MTS assay; format: functional
HCT-116 [32] = test: Induction of apoptosis in human HCT-116 cells assessed as early apoptotic cells at 5 uM incubated for 48 hrs by Annexin V-PE and propidium iodide staining based flow cytometry analysis (reference value: 0.4%); format: functional
HCT-116 [33] = test: Effect on RB1 expression in human HCT-116 cells at 2.5 to 10 uM incubated for 48 hrs by Western blotting analysis; format: functional, cell-based; conditions: dose 2.5-10 µM
[34] = Cytotoxicity against human NCM460 cells incubated for 72 hrs by MTS assay; format: toxicity, cell-based
RKO [35] = test: Induction of apoptosis in human RKO cells assessed as late apoptotic cells at 10 uM incubated for 48 hrs by Annexin V-PE and propidium iodide staining based flow cytometry analysis (reference value: 0.3%); format: functional
HCT-116 [36] = test: Induction of apoptosis in human HCT-116 cells assessed as late apoptotic cells at 5 uM incubated for 48 hrs by Annexin V-PE and propidium iodide staining based flow cytometry analysis (reference value: 0.5%); format: functional

Serine/threonine-protein kinase AKT (Homo sapiens), sequence (P31749 whole entry, looked up): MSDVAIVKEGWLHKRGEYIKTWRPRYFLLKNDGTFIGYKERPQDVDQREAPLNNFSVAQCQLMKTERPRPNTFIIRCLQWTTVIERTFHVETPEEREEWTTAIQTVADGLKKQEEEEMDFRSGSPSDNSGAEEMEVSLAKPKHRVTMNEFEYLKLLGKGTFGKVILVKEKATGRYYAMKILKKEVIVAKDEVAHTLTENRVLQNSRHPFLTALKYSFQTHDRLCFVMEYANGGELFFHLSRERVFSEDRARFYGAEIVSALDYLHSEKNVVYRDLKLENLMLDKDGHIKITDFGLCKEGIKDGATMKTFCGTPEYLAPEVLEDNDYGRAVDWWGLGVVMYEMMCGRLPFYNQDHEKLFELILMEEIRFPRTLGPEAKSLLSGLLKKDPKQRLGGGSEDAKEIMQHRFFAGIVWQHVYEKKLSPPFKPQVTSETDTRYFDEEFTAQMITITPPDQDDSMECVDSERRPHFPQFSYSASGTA
Serine/threonine-protein kinase AKT (Homo sapiens), sequence (P31751 whole entry, looked up): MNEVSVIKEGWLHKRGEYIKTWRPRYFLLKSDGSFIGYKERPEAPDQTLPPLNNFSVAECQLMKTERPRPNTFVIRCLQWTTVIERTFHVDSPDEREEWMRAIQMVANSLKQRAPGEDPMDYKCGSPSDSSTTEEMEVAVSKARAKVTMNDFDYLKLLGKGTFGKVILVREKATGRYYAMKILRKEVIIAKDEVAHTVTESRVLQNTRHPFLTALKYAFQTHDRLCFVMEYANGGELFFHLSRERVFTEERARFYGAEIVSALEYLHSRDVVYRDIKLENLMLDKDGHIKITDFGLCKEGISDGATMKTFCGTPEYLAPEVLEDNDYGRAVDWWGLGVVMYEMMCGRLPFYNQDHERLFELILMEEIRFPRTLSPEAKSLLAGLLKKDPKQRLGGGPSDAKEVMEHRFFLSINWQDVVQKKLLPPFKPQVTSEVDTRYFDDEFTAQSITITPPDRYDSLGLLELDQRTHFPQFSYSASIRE
Serine/threonine-protein kinase AKT (Homo sapiens), sequence (Q9Y243 whole entry, looked up): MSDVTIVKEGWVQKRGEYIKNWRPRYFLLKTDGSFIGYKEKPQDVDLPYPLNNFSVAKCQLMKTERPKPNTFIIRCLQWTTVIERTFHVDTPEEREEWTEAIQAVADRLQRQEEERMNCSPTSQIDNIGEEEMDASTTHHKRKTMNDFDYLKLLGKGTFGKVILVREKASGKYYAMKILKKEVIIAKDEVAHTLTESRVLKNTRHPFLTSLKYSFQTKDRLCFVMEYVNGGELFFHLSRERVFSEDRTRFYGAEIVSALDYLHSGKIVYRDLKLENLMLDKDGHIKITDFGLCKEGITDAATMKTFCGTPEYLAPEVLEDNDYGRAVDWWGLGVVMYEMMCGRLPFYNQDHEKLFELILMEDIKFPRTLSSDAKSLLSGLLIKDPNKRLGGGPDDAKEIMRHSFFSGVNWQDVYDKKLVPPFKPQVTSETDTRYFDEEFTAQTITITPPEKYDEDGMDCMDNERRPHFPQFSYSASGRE

**Q.** What does the source list for `C=C(C)C(=O)N1CCc2cccc(C3=CC(=O)N(C)C3=O)c21`?
**A.** IC50 (HT-29): 1.73 µM; Activity (RKO [1]): 0%; Activity [2]: Non-Toxic; Activity (HCT-116 [3]): Active; inhibition [4]: Dose-Dependent Effect; Activity (HCT-116 [5]): 7.2%; Activity (HCT-116 [6]): 3.2%; Activity (HCT-116 [7]): inactive; inhibition (HCT-116 [8]): Active; inhibition (HCT-116 [9]): Dose-Dependent Effect; Activity (HCT-116 [10]): inactive; Activity (HCT-116 [11]): Dose-Dependent Effect; Activity [12]: Non-Toxic; Activity (RKO [13]): inactive; Activity (HCT-116 [14]): 1.8%; Activity (RKO [15]): Active; viability at 5 µM (RKO [16]): 98%; Activity (HCT-116 [17]): 0.7%; inhibition (RKO [18]): Active; Activity (RKO [19]): 0.4%; Activity (HCT-116 [20]): Active; Activity [21]: Non-Toxic; Activity (HCT-116 [22]): Active; Activity (RKO [23]): Active; viability at 2.5 µM (HCT-116 [24]): 96.5%; Activity (HCT-116 [25]): inactive; Activity (HCT-116 [26]): 4.6%; Activity (HCT-116 [27]): Dose-Dependent Effect; Activity (HCT-116 [28]): Active; viability at 5 µM (HCT-116 [29]): 93.6%; Activity (HCT-116 [30]): Active; Activity (RKO [31]): 100.1%; Activity (HCT-116 [32]): 1.5%; Activity (HCT-116 [33]): inactive; IC50 at 72 h [34]: 63.7 µM; Activity (RKO [35]): 1.1%; Activity (HCT-116 [36]): 1.7%
